Results on 4 molecules are retold here after ChEMBL document CHEMBL4622855, “Secondary metabolites from Isodon ternifolius (D. Don) Kudo and their anticancer activity as DNA topoisomerase IB and Tyrosyl-DNA phosphodiesterase 1 inhibitors” (Bioorg Med Chem, 2020).

The target in assay [1] is T1, DNA topoisomerase I (Bos taurus) (UniProt F1MN93).
T1 sequence (whole entry): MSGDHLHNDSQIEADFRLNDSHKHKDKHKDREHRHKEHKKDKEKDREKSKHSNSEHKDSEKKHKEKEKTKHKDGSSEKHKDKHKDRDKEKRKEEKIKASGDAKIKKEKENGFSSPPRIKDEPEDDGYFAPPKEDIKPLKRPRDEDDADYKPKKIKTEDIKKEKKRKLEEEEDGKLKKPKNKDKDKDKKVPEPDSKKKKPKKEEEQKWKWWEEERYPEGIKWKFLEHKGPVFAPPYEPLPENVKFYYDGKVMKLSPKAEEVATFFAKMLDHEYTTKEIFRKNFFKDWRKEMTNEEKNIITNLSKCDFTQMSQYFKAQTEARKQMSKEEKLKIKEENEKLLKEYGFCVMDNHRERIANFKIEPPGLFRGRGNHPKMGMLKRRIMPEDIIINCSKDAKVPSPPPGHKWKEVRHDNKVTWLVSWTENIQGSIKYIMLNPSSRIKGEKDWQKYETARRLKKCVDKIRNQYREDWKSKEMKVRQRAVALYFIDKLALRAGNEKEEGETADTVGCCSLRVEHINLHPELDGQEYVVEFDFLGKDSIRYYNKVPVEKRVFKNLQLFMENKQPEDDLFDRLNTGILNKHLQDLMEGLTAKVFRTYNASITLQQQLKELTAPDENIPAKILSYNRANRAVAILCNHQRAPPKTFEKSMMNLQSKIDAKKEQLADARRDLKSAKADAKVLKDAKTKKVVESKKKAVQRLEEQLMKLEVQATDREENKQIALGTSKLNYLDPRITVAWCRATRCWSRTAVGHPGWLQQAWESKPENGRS
Nature of the assay: Inhibition of calf thymus Top1-mediated supercoiled pBR322 DNA cleavage assessed as nicked DNA content at 50 uM measured after 30 mins by ethidium bromide staining agarose gel electrophoresis. Further details: scale not given: the % may be the effect or the level left.

In assay [2] the test system is MCF7. In words: Induction of DNA damage in human MCF7 cells assessed as increase in gammaH2AX foci formation at 0.5 uM measured after 12 hrs by immunofluorescence assay. The class given is functional, cell-based.
Assay [3] addresses T1, DNA topoisomerase I (Bos taurus). In words: Inhibition of calf thymus Top1-mediated supercoiled pBR322 DNA cleavage assessed as nicked DNA content at 25 uM measured after 30 mins by ethidium bromide staining agarose gel electrophoresis. Also noted: scale not given: the % may be the effect or the level left.
Assay [4] concerns MCF7. In words: Cytotoxicity against human MCF7 cells assessed as reduction in cell viability after 72 hrs by MTT assay. The class given is functional. Particulars: MCF7, 72 h. On the technique in general: Tetrazolium assays rely on reduction of a dye to a coloured formazan, in cell work by metabolically active cells.
For assay [5], the target named is T1, DNA topoisomerase I (Bos taurus). In words: Inhibition of calf thymus Top1 assessed as reduction in supercoiled pBR322 DNA relaxation at 100 uM measured after 30 mins by agarose gel electrophoresis relative to camptothecin.
Assay [6] concerns the target Tyrosyl-DNA phosphodiesterase 1 (Homo sapiens, UniProt Q9NUW8). In words: Inhibition of TDP1 (unknown origin) expressed in Escherichia coli BL21 (DE3) using 5'-FAM-AGGATCTAAAAGACTT-BHQ-3' as substrate preincubated for 30 mins followed by substrate addition by fluorescence assay.
A further assay concerns HCT-116. Nature of the assay: Cytotoxicity against human HCT116 cells assessed as growth inhibition after 72 hrs by MTT assay. Format: functional. The settings on record: HCT-116, 72 h.
The subject of assay [7] is MCF7. Nature of the assay: Synergistic antiproliferative activity against human MCF7 cells assessed as combination index at 12.5 to 50 uM after 72 hrs in presence of TOP1 inhibitor topotecan by MTT assay. Format: functional.
The next assay has as its system A549. In words: Cytotoxicity against human A549 cells assessed as growth inhibition after 72 hrs by MTT assay. The settings on record: A549, 72 h. The class given is functional.
In assay [8] the test system is MCF7. In words: Induction of DNA damage in human MCF7 cells assessed as increase in gammaH2AX foci formation up to 9 uM measured after 12 hrs by immunofluorescence assay. The class given is functional, cell-based.
Assay [9] addresses T1, DNA topoisomerase I (Bos taurus). Nature of the assay: Inhibition of calf thymus Top1 assessed as reduction in Top1-supercoiled pBR322 DNA covalent cleavage formation at 25 to 50 uM measured after 30 mins by electrophoretic mobility shift assay.
For assay [10] the target is unchanged. Nature of the assay: Inhibition of calf thymus Top1 assessed as reduction in supercoiled pBR322 DNA relaxation measured after 30 mins by agarose gel electrophoresis.
In assay [11] the test system is MCF7. In words: Synergistic antiproliferative activity against human MCF7 cells assessed as combination index at 50 to 100 uM after 72 hrs in presence of TOP1 inhibitor topotecan by MTT assay. The class given is functional.

Active and inactive are the calls of the source. The calls are words filed in the database; no cut-off is given here.

Sequence of Tyrosyl-DNA phosphodiesterase 1 (Q9NUW8 whole entry): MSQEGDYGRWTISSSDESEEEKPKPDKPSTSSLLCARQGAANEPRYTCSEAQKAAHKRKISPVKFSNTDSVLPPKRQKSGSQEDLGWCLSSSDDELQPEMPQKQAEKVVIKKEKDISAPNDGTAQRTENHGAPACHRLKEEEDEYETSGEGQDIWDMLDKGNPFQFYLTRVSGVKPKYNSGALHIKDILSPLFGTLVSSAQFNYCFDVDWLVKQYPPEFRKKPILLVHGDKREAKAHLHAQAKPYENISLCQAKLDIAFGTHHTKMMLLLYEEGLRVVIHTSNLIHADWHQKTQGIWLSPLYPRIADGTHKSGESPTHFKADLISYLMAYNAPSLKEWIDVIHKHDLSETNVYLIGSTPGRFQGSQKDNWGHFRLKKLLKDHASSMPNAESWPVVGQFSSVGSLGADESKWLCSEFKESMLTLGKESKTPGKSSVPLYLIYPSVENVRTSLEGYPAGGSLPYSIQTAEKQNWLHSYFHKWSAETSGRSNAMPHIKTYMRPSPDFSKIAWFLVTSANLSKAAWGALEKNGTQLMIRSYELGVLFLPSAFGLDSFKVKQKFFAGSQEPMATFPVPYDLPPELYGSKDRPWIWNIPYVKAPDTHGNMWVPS

Turning to `CC[C@@]1(O)C(=O)OCc2c1cc1n(c2=O)Cc2cc3ccccc3nc2-1`, the Activity in [1] is 18%; in [3] it was 16%. Moreover, the result in the assay on MCF7 [2] was Active.

As a reminder, the GI50 is the concentration at which growth is held to half of that of the control. The inhibition is the share of the control response that was lost under treatment. In general, IC50 refers to the midpoint of a concentration-inhibition curve. On to `COc1cc(O)ccc1/C=C/C(=O)c1ccc(O)cc1` [ECHINATIN], for which the 50% growth inhibitory concentration (GI50) was found to be 43 µM in the assay on MCF7 [4], 64 µM in the assay on HCT-116 and 36 µM in the assay on A549. Also, the inhibition in assay [5] was in the range of 30 to 59%. In addition, the IC50 in assay [6] worked out at 45 µM. Moreover, in the assay on MCF7 [7], the CI is less than 0.3.

For the molecule `C[C@H]1[C@H](C)CC[C@]2(C(=O)O)CC[C@]3(C)C(=CC[C@@H]4[C@@]5(C)CCC(=O)C(C)(C)[C@@H]5CC[C@]43C)[C@H]12` [URSONIC ACID], the GI50 in the assay on MCF7 [4] stood at 12 µM; in the assay on HCT-116 it was 5.3 µM; in the assay with A549 it was 57 µM. The inhibition was more than 90% in assay [5] and “Dose-dependent effect” in [10]. Moreover, the Activity in assay [1] amounted to 9%; in assay [3], 11%. For the same molecule, the outcome with MCF7 [8] was inactive. Moreover, the inhibition entry in assay [9] is “Active”.

Take `O=C(/C=C/c1ccc(O)cc1)c1ccc(O)cc1O` [ISOLIQUIRITIGENIN]: the GI50 with MCF7 [4] was more than 100 µM; with HCT-116, 39 µM; in the assay on A549, 87 µM. The inhibition in [5] lay in the range of 30 to 59%. For the same molecule, the CI in the assay with MCF7 [11] is less than 1. Also, the half-maximal inhibitory concentration (IC50) in assay [6] came out at 55 µM.
